Source: paper PMC12004362 (RSC Advances, 2025)
Read-outs that look alike come from different tables or passages of the source.

Tests used:
BT-16 cells = test: Secondary screening; assay type: cell-based, human
in vitro [1] = details: human, primary human astrocytes
primary human astrocytes = test: Cytotoxicity test
BT-12 cells = test: Secondary screening; assay type: cell-based, human
[2] = tested on: human cerebral microvascular endothelial cells (hCMEC/D3 cells)
in vitro [3] = details: human
[4] = acute use for gout flares, doses up to 1.8 mg within 2 hours; cited from earlier work
[5] = Homo sapiens, BT-16, 72 h, read-out: BT-16 cells IC50, 2D culture, 72 h, MTT
[6] = Homo sapiens, BT-12, 72 h, read-out: BT-12 cells IC50, 2D culture, 72 h, MTT
[7] = read-out: BT-16 cells IC50, 2D culture, 72 h, MTT
[8] = read-out: BT-12 cells IC50, 2D culture, 72 h, MTT

SMILES | IC50 (BT-16 cells; [5]) [nM] | CC50 at 72 h (in vitro [1]) [nM] | SI (CC50/IC50) Astrocytes: BT-12 (primary human astrocytes; CC50 astrocytes / IC50 BT-12) | SI (CC50/IC50) Astrocytes: BT-16 (primary human astrocytes; CC50 astrocytes / IC50 BT-16) | IC50 (BT-12 cells; [6]) [nM] | SI (CC50/IC50) hCMEC/D3: BT-12 ([2]; CC50 hCMEC/D3 / IC50 BT-12) | SI (CC50/IC50) hCMEC/D3: BT-16 ([2]; CC50 hCMEC/D3 / IC50 BT-16) | CC50 at 72 h (in vitro [3]) [nM] | IC50 (BT-16 cells; [7]) [nM] | IC50 (BT-12 cells; [8]) [nM] | Diarrhea, most frequently reported side effect [4] [%]
COc1cccc2c1C(=O)c1c(O)c3c(c(O)c1C2=O)C[C@@](O)(C(=O)CO)C[C@@H]3O[C@H]1C[C@H](N)[C@H](O)[C@H](C)O1 [Doxorubicin] | 42 | 131 | 4.679 | 3.119 | 28 | 24.964 | 16.64 | 699 |  |  | 
CC[C@H]1CN2CCc3cc(OC)c(OC)cc3[C@@H]2C[C@@H]1C[C@H]1NCCc2cc(OC)c(OC)cc21 [Emetine] | < 100 | 1240 |  |  | < 100 |  |  |  | 93 | 90 | 
COc1cc2c(c(OC)c1OC)-c1ccc(OC)c(=O)cc1[C@@H](NC(C)=O)CC2 [Colchicine] |  | > 20000 |  |  |  |  |  | > 20000 |  |  | 23
C[C@H]1O[C@@H](O[C@H]2[C@@H](O)C[C@H](O[C@H]3[C@@H](O)C[C@H](O[C@H]4CC[C@@]5(C)[C@H](CC[C@@H]6[C@@H]5C[C@@H](O)[C@]5(C)[C@@H](C7=CC(=O)OC7)CC[C@]65O)C4)O[C@@H]3C)O[C@@H]2C)C[C@H](O)[C@@H]1O [Digoxin] | < 100 |  |  |  | < 100 |  |  |  | 76 | 80 | 
